Where two headings read alike, the source gives them in different places.
Assays:
Axin2 in SW480 cells = assay: cells; assay type: cell-based; details: Homo sapiens, read-out: Axin2 384 IF EC50 IP
How it was run: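 SW480 cells treated 24 h at 37° C (0.5% DMSO final), fixed/permeabilized, immunostained for Axin2. ArrayScan imaging quantified ring-spot intensity; Axin2 accumulation expressed as percent of control, EC50 from concentration-response.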

[1] = tested on: 8×TCF promoter-driven Firefly luciferase (Wnt reporter) in HEK-293 cells; assay: 2H9-STF assay, Wnt ligand activated HEK-293 assay in WT APC cellular context; assay type: cell-based; details: Homo sapiens
Protocol: HEK-293 cells engineered with an 8×TCF promoter-driven Firefly (FF) luciferase gene (Wnt reporter) along with an SV40 promoter-driven Renilla (RN) luciferase gene (control reporter) were used to measure the potency of tankyrase compounds in the context of Wnt ligand activation in a wild-type (non-APC mutated) cellular background. The engineered HEK-293 cells were plated (25 μL) at a density of 40,000 cells/well in black, clear-bottom, 96-well View plates (PerkinElmer) in normal growth medium (DMEM with 10% FBS with no antibiotics). Tankyrase inhibitors (5 μL) were transferred to cells from a three-fold serially diluted compound plate. A 10-point dilution series was tested starting at a concentration (10 μM final concentration in assay). Column 6 contained only DMSO and served as the “HI” control. Cells and compounds were incubated together for 1 hour at 37° C. after which the Wnt3a ligand (pathway inducer) was added to all wells except column 12 which served as the “LO” control. Twenty microliters of diluted recombinant mouse Wnt3a (R & D Systems) was added to the cells for a final concentration of 200 ng/mL (5 nM which is the Wnt3a˜EC80) and the plates were incubated at 37° C. for 18 to 24 hours. The Dual-Glo Reagents (Promega) were added as directed by manufacturer to assay the FF and RN luciferase activity. Luciferase activity was measures using the EnVision multilabel plate reader (PerkinElmer).

[2] = tested on: total β-catenin in SW480 colorectal cells; assay: cells; assay type: cell-based; details: Homo sapiens
How it was run: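 SW480 cells in growth medium (MEM alpha, 10% heat-inactivated FBS, 10 mM HEPES) treated with a 10-point, 3-fold dilution series of TNKS inhibitor for 40–48 h at 37 °C. Lysates run on an MSD sandwich immunoassay for total β-catenin, read by electrochemiluminescence.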

[3] = target: 6×HIS-tankyrase 1 (1091-1325) (Homo sapiens (Human), UniProt O95271); assay: biochemical; assay type: biochemical; details: […] enzyme, 400 nM NAD, 60 minutes at room temperature; read-out: TNKS1 IP IC50
[4] = target: 6×HIS-tankyrase 2 (946-1162) (Homo sapiens (Human), UniProt Q9H2K2); assay: Tankyrase 2 biochemical assay (AlphaLisa, anti-PAR detection); details: 4 nM enzyme, 250 nM NAD; read-out: TNKS2 IP IC50
[5] = tested on: 8×TCF promoter-driven Firefly luciferase (Wnt reporter) in DLD-1 colorectal cells; assay: DLD-1-STF assay, constitutively activated Wnt pathway in mutant APC cancer cell context; assay type: cell-based; details: Homo sapiens
Protocol: DLD-1-STF Assay. Constitutively Activated Wnt Pathway Assay in Mutant APC Cancer Cell Context
DLD-1 colorectal cells engineered with an 8×TCF promoter-driven Firefly (FF) luciferase gene (Wnt reporter) along with an EF1a promoter-driven Renilla (RN) luciferase gene (control reporter) were used to measure the potency of tankyrase compounds in the context of the constitutively activated Wnt pathway due to mutated APC in colorectal cancer cells. The engineered DLD-1 cells were plated (45 μL) at a density of 10,000 cells/well in black, clear-bottom, 96-well View plates (PerkinElmer) in normal growth medium (RPMI with 10% FBS with no antibiotics). Tankyrase inhibitors (5 μL) were transferred to cells from a three-fold serially diluted compound plate. A 10-point dilution series was tested starting at a concentration (10 μM final concentration in assay). Column 6 contained only DMSO and served as the “HI” control. […] The plates were incubated at 37° C. for 40 to 48 hours. The Dual-Glo Reagents (Promega) were added as directed by manufacturer to assay the FF and RN luciferase activity. Luciferase activity was measures using the EnVision multilabel plate reader (PerkinElmer).

SW480 cells = assay: Colony formation assay; assay type: cell-based; details: Homo sapiens, read-out: SW480 Colony Inhibition IC50
Protocol: Colorectal cell lines grown under normal logarithmic growth conditions in 10% FBS were trypsinized, counted in a Vi-CELL Cell Viability Analyzer and diluted to 400 cells/mL in RPMI media containing 0.5% FBS. Cells were plated in 12 well plates using 0.5 mL of diluted cells for a total of 200 cells/well. Tankyrase inhibitors were diluted in RPMI (0.5% FBS) at 2× final concentration. Ten concentrations of compound were prepared starting at 20 μM and serially diluted by 2 fold and 0.5 mL of diluted compound was added to each well. The final concentration range tested was thus 10 μM down to 20 nM. Two additional wells per plate were treated with the vehicle control (0.1% DMSO). The cells were grown for 12 days with the media and the compounds changed at day 6. Colonies were visualized by fixing and staining with Crystal Violet dye diluted in 1× fixation solution (2% formaldehyde, 0.2%, glutaraldehyde in 1×PBS) for 30 minutes at room temperature. The plates were washed extensively and air dried. Images of plates were captured and the colony counts were performed using the Bioreader® (Biosys) reader.

[6] = SW480, 24 h, SW480 cells, 24 hours
[7] = HEK293, HEK-293 reporter cells, 200 ng/mL mouse Wnt3a, 18 to 24 hours, read-out: 2H9-Wnt3a-STF-FF/RL * 100 IC50
[8] = SW480 cells, 40 to 48 hours, top concentration 10 μM, read-out: SW480-Total β-Catenin IC50 IP
[9] = HEK293, read-out: 2H9-Wnt3a-STF-FF/RL * 100 IC50
[10] = DLD-1 reporter cells, 40 to 48 hours, read-out: DLD1-STF-FF/RL * 100 IC50

Chain of 6×HIS-tankyrase 2 (946-1162) (Q9H2K2 946-1162): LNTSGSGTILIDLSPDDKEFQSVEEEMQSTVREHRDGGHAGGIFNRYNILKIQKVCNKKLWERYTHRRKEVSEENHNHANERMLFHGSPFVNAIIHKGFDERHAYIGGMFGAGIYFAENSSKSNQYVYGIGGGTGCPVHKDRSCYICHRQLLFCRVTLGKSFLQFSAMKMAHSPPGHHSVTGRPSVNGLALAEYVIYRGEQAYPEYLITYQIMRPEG
Chain of 6×HIS-tankyrase 1 (1091-1325) (O95271 1091-1325): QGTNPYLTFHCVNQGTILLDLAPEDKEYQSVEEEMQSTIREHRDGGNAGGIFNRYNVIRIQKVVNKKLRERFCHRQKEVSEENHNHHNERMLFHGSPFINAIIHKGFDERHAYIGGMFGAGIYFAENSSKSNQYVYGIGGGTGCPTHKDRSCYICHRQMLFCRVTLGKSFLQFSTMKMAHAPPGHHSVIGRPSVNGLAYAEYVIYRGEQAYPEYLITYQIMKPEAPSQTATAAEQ

Compound	EC50 (Axin2 in SW480 cells; [6]) [nM]	IC50 [1, 7] [nM]	IC50 [2, 8] [nM]	IC50 [3] [nM]	other results
CC1(C)OC(=O)N([C@H]2CC[C@H](n3c(=O)[nH]c4ccccc43)CC2)C1c1ccccc1 (stereo partly drawn) [Example 35, (R+S) 5,5-dimethyl-3-((1r,4r)-4-(2-oxo-2,3-dihydro-1H-benzo[d]imidazol-1-yl)cyclohexyl)-4-phenyloxazolidin-2-one]	6690	543	1330	11.8	–
CC1(C)OC(=O)N(c2ccc(-c3cc(-c4ncccn4)c[nH]c3=O)cc2)[C@H]1c1ccccc1 [Example 4, (S)-5,5-Dimethyl-3-(4-(2-oxo-5-(pyrimidin-2-yl)-1,2-dihydropyridin-3-yl)phenyl)-4-phenyloxazolidin-2-one]	–	–	–	76.9	IC50 [4]: 65.9 nM; EC50 (Axin2 in SW480 cells; SW480, 24 h): 2840 nM; IC50 [1, 9]: 290 nM; IC50 ([2]; SW480, read-out: SW480-Total β-Catenin IC50 IP): 750 nM
CC1(C)OC(=O)N([C@H]2CC[C@H](NC(=O)c3cccc4cccnc34)CC2)[C@@H]1c1ccccc1 (single isomer, unassigned) [Example 28]	–	113	–	–	–
CC1(C)OC(=O)N(c2ccc(-c3cnc(N)c(-c4ccc5nncn5n4)c3)cc2)[C@H]1c1ccccc1 [Example 12, (S)-3-(4-(5-([1,2,4]triazolo[4,3-b]pyridazin-6-yl)-6-aminopyridin-3-yl)phenyl)-5,5-dimethyl-4-phenyloxazolidin-2-one]	–	–	212	52.1	IC50 [4]: 49.3 nM
CC1(C)OC(=O)N(c2ccc(-c3cnc(N)c(-c4ncc(F)cn4)c3)cc2)[C@H]1c1ccccc1 [Example 64, (S)-3-(4-(6-amino-5-(5-fluoropyrimidin-2-yl)pyridin-3-yl)phenyl)-5,5-dimethyl-4-phenyloxazolidin-2-one]	3230	–	293	85	IC50 [4]: 48.3 nM
CC1(C)OC(=O)N([C@H]2CC[C@H](n3c(=O)[nH]c4cc(C#N)ccc43)CC2)[C@H]1c1ccccc1 [Example 47, 1-((1S,4r)-4-((S)-5,5-dimethyl-2-oxo-4-phenyloxazolidin-3-yl)cyclohexyl)-2-oxo-2,3-dihydro-1H-benzo[d]imidazole-5-carbonitrile]	–	–	53.7	–	EC50 (Axin2 in SW480 cells; SW480 cells, 24 hours): 72.9 nM; IC50 ([5]; DLD-1, read-out: DLD1-STF-FF/RL * 100 IC50): 12 nM
CC1(C)OC(=O)N([C@H]2CC[C@H](C(=O)Nc3cccc4cccnc34)CC2)[C@H]1c1ccccc1 [Example 32, (1S,4r)-4-((S)-5,5-dimethyl-2-oxo-4-phenyloxazolidin-3-yl)-N-(quinolin-8-yl)cyclohexanecarboxamide]	–	92.8	–	–	–
CC1(C)OC(=O)N([C@H]2CC[C@H](n3c(=O)[nH]c4cnccc43)CC2)[C@H]1c1ccccc1 [Example 23, (S)-5,5-dimethyl-3-((1r,4S)-4-(2-oxo-2,3-dihydro-1H-imidazo[4,5-c]pyridin-1-yl)cyclohexyl)-4-phenyloxazolidin-2-one]	231	–	143	–	IC50 [5, 10]: 44 nM
CC1(C)OC(=O)N(c2ccc(-c3cnc(N)c(-c4ncccn4)c3)cc2)[C@H]1c1ccccc1 [Example 65, (S)-3-(4-(6-amino-5-(pyrimidin-2-yl)pyridin-3-yl)phenyl)-5,5-dimethyl-4-phenyloxazolidin-2-one]	1440	95.9	233	49	IC50 [4]: 25.9 nM; IC50 (SW480 cells; 288 h, SW480, 0.5% FBS, 12 days): 1300 nM; IC50 [5, 10]: 107 nM
CC1(C)OC(=O)N(c2ccc(C(=O)Nc3cccc4cccnc34)cc2)[C@H]1c1cccnc1 [Example 11, (S)-4-(5,5-dimethyl-2-oxo-4-(pyridin-3-yl)oxazolidin-3-yl)-N-(quinolin-8-yl)benzamide]	7060	–	1520	392	–
CC1(C)OC(=O)N([C@H]2CC[C@H](n3c(=O)[nH]c4cccnc43)CC2)[C@H]1c1ccccc1 [Example 37, (S)-5,5-dimethyl-3-((1r,4S)-4-(2-oxo-1H-imidazo[4,5-b]pyridin-3(2H)-yl)cyclohexyl)-4-phenyloxazolidin-2-one]	3580	183	517	–	–
Cc1ccccc1[C@@H]1N(c2ccc(C(=O)Nc3cccc4cccnc34)cc2)C(=O)OC1(C)C [Example 41, (S)-4-(5,5-dimethyl-2-oxo-4-(o-tolyl)oxazolidin-3-yl)-N-(quinolin-8-yl)benzamide]	4370	–	1980	116	–
O=C(Nc1cccc2cccnc12)c1ccc(N2C(=O)OC3(CCC3)C2c2ccccc2)cc1 (stereo not drawn) [Example 44, (R+S) 4-(6-oxo-8-phenyl-5-oxa-7-azaspiro[3.4]octan-7-yl)-N-(quinolin-8-yl)benzamide]	–	–	8800	822	EC50 (Axin2 in SW480 cells; SW480 cells, 24 hours): > 25000 nM
CC1(C)OC(=O)N([C@H]2CC[C@H](NC(=O)c3cccc4cccnc34)CC2)[C@H]1c1ccccc1 [Example 26, N-((1S,4r)-4-((S)-5,5-dimethyl-2-oxo-4-phenyloxazolidin-3-yl)cyclohexyl)quinoline-8-carboxamide]	–	–	–	–	IC50 (SW480 cells; SW480, 288 h): 1300 nM; IC50 [1, 9]: 55 nM
CC1(C)OC(=O)N(c2ccc(-c3cc(-c4ncccn4)cnc3F)cc2)[C@H]1c1ccccc1 [Example 3, (S)-3-(4-(2-Fluoro-5-(pyrimidin-2-yl)pyridin-3-yl)phenyl)-5,5-dimethyl-4-phenyloxazolidin-2-one]	> 25000	–	1750	378	–

Source: US9340549B2, “Oxazolidinone compounds and derivatives thereof” (priority 2012, dated 2016)
